Here are results for 1 molecule from publication PMC11363324 (ACS Central Science, 2024).

The subject of series [1] is C57BL/6J mice. In words: animal or person. The format is in vivo. Conditions: Mus musculus, sc, read-out: antinociception ED50 (and 95% CI).
Series [2] deals with C57BL/6J mice. As to conditions: mouse, in vivo.

SMILES strings stand for the structures.

For orientation: ED50 means the dose at which the effect has come halfway, by size or by number of responders. As to `CN1CC[C@]23c4c5ccc(O)c4O[C@H]2[C@@H](O)C=C[C@H]3[C@H]1C5` [Morphine], in the series on C57BL/6J mice [1], the ED50 is 4 mg/kg. Further, in the series with C57BL/6J mice [2] (C57BL/6J), the “withdrawal: jumping frequency vs saline” value was “****p < 0.0001” and the “withdrawal: teeth chattering frequency vs saline” value is “***p = 0.0003”. Besides, in the series on C57BL/6J mice [2], the “withdrawal: forepaw licking frequency vs saline” value was “significant” and the “withdrawal: rearing frequency vs saline” value is “significant”.
